Where no end group is shown, it is not given here. [ ]: non-standard residue; d: D form. Gla = N[C@@H](CC(C(=O)O)C(=O)O)C(=O)O
What was measured:
[1] = system: subcutaneously implanted tumors; experiment: Progression of subcutaneously implanted tumors; format: in vivo, mice; conditions: 100 μM
Protocol: To the examine the effect of beta-3 integrin cytoplasmic domain inhibitory peptides on tumor progressino we subcutaneously implanted tumors in mice and then treated the mice with either 100 μM of control peptide or with equal amount of inhibiting peptide 1 (RR cyclic (NPLXK) (SEQ ID NO: 7), disulfide bridge cycle), inhibiting peptide 2 (RR cyclic (NITXR) (SEQ ID NO: 8), disulfide bridge cycle), inhibiting peptide 3 ([…] cyclic (NPLXK) (SEQ ID NO: 7), disulfide bridge cycle), inhibiting peptide 4 ([…] cyclic (NITXR) (SEQ ID NO: 8), disulfide bridge cycle), inhibiting peptide 5 (RR linear (NPLXK) (SEQ ID NO: 7)); and inhibiting peptide 6 (RR linear (NITXR) (SEQ ID NO: 8)), where X is γ-carboxyglutamic acid.

WT mouse aortic rings = experiment: Mouse aortic ring angiogenesis; format: cell-based; conditions: 50 μM, in the presence of VEGF, 1 week
Protocol: Thoracic aortas from WT and DiYF mice were removed under aseptic conditions and spliced into 1 mm thick rings. Thoracic aortic rings were placed between two layers of growth factor depleted Matrigel and allowed to solidify at room temperature. Matrigels were overlaid with either with DMEM or endothelial growth medium with or without VEGF (40 ng/ml). Microvessel outgrowth was visualized by phase contrast microscopy and numbers of vessels growing from each aortic ring were counted and photographed every two days using Leica phase contrast microscope.
To examine the effect of cyclic inhibiting peptides on mouse aortic ring angiogensis, thoracic aortas from WT mice were removed under aseptic conditions and spliced into 1 mm thick rings. Thoracic aortic rings were placed between two layers of growth factor depleted Matrigel and allowed to solidify at room temperature. Matrigels were administered VEGF and 50 μM control peptides or with equal amounts of inhibiting peptide 1 (RR cyclic (NPLXK) (SEQ ID NO: 39), disulfide bridge cycle), inhibiting peptide 2 (RR cyclic (NITXR) (SEQ ID NO: 40), disulfide bridge cycle), inhibiting peptide 3 (RRRKKRKRRR cyclic (NPLXK) (SEQ ID NO: 41), disulfide bridge cycle), and inhibiting peptide 4 (RRRKKRKRRR cyclic (NITXR) (SEQ ID NO: 42), disulfide bridge cycle), where X is γ-carboxyglutamic acid. Microvessel outgrowth was visualized by phase contrast microscopy and numbers of vessels growing from each aortic ring were counted and photographed every two days using Leica phase contrast microscope after 1 week.

[2] = system: human melanoma cells (WM-164); experiment: Apoptosis in melanoma cells; format: cell-based; conditions: 100 μM
Protocol: To the examine the effect of beta-3 integrin cytoplasmic domain inhibitory peptides on tumor progressino we treated human melanoma cells (WM-164) with either 100 μM of control peptide or with equal amount of inhibiting peptide 07-240 (HIV-TAT-(NPLXK) (SEQ ID NO: 7)), inhibiting peptide 07-241 (HIV-TAT-(NPLDK) (SEQ ID NO: 9)), inhibiting peptide 07-243 (HIV-TAT-(NITXR) (SEQ ID NO: 8)), and inhibiting peptide 07-244 (HIV-TAT-(NITDR) (SEQ ID NO: 10)), where X is γ-carboxyglutamic acid.

αvβ3 integrin [3] = experiment: WOW-1 binding assay, mouse lung endothelial cells; format: cell-based; conditions: DiYF EC; 20 ng/ml VEGF or 1 mM MnCl2
Protocol: (§1) Wild type and DiYF mouse lung endothelial cells were serum starved for 4 h and further stimulated with 20 ng/ml VEGF-165, 20 ng/ml b-FGF or 1 mm MnC12 separately. WoW-1 Fab was added at a final concentration of […], followed by addition of Fluorescein isothiocyanate (FITC) conjugated goat anti-mouse IgG at 10 μg/ml. After 30 min cells were fixed with 3.7% formaldehyde/PBS for 15 min, washed twice with 1×PBS and FACS was performed using a FACS Calibur (Becton Dickinson, San Jose, Calif.) instrument and data were analyzed using CellQuest software program.

αvβ3 integrin [4] = target: T1, αvβ3 integrin (Mus musculus, UniProt O54890+P43406); experiment: WOW-1 binding assay, mouse lung endothelial cells; format: cell-based; conditions: WT EC; 20 ng/ml VEGF or 1 mM MnCl2
T1 construct: endogenous in cells; host or cells: primary mouse lung endothelial cells
T1 sequence (O54890 26-787): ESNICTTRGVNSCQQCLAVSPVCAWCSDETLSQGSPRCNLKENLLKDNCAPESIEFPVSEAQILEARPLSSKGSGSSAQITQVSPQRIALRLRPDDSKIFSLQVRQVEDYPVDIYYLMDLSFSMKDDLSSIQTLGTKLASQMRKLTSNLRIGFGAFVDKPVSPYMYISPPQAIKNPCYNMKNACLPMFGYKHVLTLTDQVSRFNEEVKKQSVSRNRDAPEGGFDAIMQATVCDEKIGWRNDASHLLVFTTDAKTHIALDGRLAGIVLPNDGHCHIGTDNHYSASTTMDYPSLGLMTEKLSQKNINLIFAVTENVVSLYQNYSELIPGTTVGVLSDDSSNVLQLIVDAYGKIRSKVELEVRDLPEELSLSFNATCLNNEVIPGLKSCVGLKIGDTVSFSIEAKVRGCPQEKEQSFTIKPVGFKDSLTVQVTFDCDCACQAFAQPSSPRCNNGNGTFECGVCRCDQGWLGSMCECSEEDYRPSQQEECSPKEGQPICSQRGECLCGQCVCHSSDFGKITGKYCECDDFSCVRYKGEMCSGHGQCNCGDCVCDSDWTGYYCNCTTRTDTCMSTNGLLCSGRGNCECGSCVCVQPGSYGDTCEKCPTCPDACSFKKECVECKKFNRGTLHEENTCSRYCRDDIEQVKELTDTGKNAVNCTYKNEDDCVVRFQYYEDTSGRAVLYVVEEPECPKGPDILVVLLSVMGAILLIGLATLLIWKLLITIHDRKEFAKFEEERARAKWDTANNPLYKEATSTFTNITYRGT
T1 sequence (P43406 31-885 limits assumed): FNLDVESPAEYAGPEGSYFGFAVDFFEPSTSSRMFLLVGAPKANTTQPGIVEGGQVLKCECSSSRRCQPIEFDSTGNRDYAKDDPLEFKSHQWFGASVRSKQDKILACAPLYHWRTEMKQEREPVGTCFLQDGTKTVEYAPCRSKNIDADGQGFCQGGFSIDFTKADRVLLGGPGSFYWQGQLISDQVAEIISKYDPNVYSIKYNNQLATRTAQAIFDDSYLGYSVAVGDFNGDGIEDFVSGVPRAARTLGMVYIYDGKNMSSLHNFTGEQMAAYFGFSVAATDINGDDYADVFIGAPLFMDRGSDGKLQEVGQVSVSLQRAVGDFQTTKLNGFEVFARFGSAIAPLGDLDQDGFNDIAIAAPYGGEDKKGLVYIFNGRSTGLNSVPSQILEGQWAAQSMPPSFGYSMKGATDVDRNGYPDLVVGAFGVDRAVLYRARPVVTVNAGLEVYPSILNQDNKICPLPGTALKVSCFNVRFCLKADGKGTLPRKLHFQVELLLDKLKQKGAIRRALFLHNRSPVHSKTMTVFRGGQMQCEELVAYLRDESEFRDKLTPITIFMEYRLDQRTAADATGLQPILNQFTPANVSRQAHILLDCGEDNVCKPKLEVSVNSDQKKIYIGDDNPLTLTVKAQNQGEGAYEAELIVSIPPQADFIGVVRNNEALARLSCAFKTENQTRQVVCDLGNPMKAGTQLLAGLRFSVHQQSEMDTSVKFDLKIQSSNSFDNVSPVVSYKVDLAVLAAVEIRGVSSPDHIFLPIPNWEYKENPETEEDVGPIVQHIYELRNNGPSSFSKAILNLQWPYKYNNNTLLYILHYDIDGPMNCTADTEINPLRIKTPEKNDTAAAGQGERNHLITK
T1 sequence (P43406 887-1044 limits assumed): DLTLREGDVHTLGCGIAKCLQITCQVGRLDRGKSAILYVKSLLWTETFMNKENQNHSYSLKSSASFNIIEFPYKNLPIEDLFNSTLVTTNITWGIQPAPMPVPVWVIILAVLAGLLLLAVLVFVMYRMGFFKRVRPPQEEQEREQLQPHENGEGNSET
Protocol: as §1

αvβ3 integrin [5] = experiment: Fibrinogen binding assay (FACS); format: cell-based, mouse; conditions: DiYF EC; 20 ng/ml VEGF or 1 mM MnCl2
Protocol: (§2) To assess fibrinogen binding, semiconfluent wild type and DiYF mouse lung endothelial cells were serum starved for 4 h and further induced with 20 ng/ml VEGF-165, 20 ng/ml b-FGF or 1 mm MnC12. Fluorescein isothiocyanate (FITC)-labeled fibrinogen was added at a final concentration of 200 nM for 45 min. […] Fluorescence-activated cell sorting (FACS) was performed using a FACS Calibur (Becton Dickinson, San Jose, Calif.) and data were analyzed using CellQuest software program.

αvβ3 integrin [6] = target: T1, αvβ3 integrin; experiment: Fibrinogen binding assay (FACS); format: cell-based; conditions: WT EC; 20 ng/ml VEGF or 1 mM MnCl2
Protocol: as §2

Row | Molecule | tumor progression compared to a control [1] | angiogenesis of the mouse aortic rings (microvessel outgrowth) (WT mouse aortic rings) | apoptosis in melanoma cells compared to a control [2] | further results
1 | RR cyclic (NITXR) (RRNIT[Gla]R; disulfide (positions not given here); not fully specified; printed as RR cyclic (NITXR); also: cyclic, closure not given here; listed as Homo sapiens) [inhibiting peptide 2, X is γ-carboxyglutamic acid] | substantially reduced tumor progression | inhibited angiogenesis |  | 
2 | HIV-TAT-(NITXR) ({HIV‑TAT}-NIT[Gla]R; not fully specified; printed as HIV-TAT-(NITXR); listed as Homo sapiens) [07-243, X is γ-carboxyglutamic acid] |  |  | induced apoptosis | 
3 | RRRKKRKRRR cyclic (NPLXK) (RRRKKRKRRRNPL[Gla]K; disulfide (positions not given here); not fully specified; listed as Homo sapiens) [inhibiting peptide 3, X is γ-carboxyglutamic acid] | substantially reduced tumor progression | inhibited angiogenesis |  | 
4 | HIV-TAT-(NPLDK) (listed as Homo sapiens) [07-241] |  |  | induced apoptosis | 
5 | RR linear (NITXR) (RRNIT[Gla]R; listed as Homo sapiens) [inhibiting peptide 6, X is γ-carboxyglutamic acid] | substantially reduced tumor progression |  |  | 
6 | RRRKKRKRRR cyclic (NITXR) (RRRKKRKRRRNIT[Gla]R; disulfide (positions not given here); not fully specified; also: cyclic, closure not given here; listed as Homo sapiens) [inhibiting peptide 4, X is γ-carboxyglutamic acid] | substantially reduced tumor progression | inhibited angiogenesis |  | 
7 | HIV-TAT-(NITDR) (listed as Homo sapiens) [07-244] |  |  | induced apoptosis | 
8 | RR cyclic (NPLXK) (RRNPL[Gla]K; disulfide (positions not given here); also: NPLXK part cyclic via disulfide bridge, no Cys in given letters; listed as Homo sapiens) [inhibiting peptide 1, X is γ-carboxyglutamic acid] | substantially reduced tumor progression | inhibited angiogenesis |  | 
9 | HIV-TAT-(NPLXK) ({HIV‑TAT}-NPL[Gla]K; not fully specified; printed as HIV-TAT-(NPLXK); listed as Homo sapiens) [07-240, X is γ-carboxyglutamic acid] |  |  | induced apoptosis | 
10 | [Cl][Mn][Cl] [MnCl2] |  |  |  | increase in WOW-1 binding (αvβ3 integrin [3]): 14 fold; increase in WOW-1 binding (αvβ3 integrin [4]): 30 fold; increase of fibrinogen binding (αvβ3 integrin [5]): 17 fold; increase of fibrinogen binding (αvβ3 integrin [6]): at least 40 fold

— US9180164B2, “Compounds and methods of modulating angiogenesis” (THE CLEVELAND CLINIC FOUNDATION, priority 2011, dated 2015)
